Experimental data: ChEMBL document CHEMBL4321828, “Recent developments on (-)-colchicine derivatives: Synthesis and structure-activity relationship” (Eur J Med Chem, 2020)
Each block holds one compound with its values, some of them ahead of it.

What was measured:
[1] = biological target: ATP-dependent translocase ABCB1 (Homo sapiens, UniProt P08183); experiment: Induction of P-gp in human LS180 cells assessed as […] in intracellular accumulation of Rh123 at 100 nM using Rho123 as substrate preincubated for 48 hrs followed by addition of Rh123 and measured after 90 mins by fluorescence based assay relative to control; type: cell-based; conditions: ls180, 48 h preincubation, then 1.5 h with Rh123, 0.1 µM
HCT-116 = experiment: Antiproliferative activity against human HCT116 cells assessed as reduction in cell viability incubated for 48 hrs by MTT assay; type: functional, cell-based; conditions: HCT-116, 48 h
COLO 205 = experiment: Antiproliferative activity against human COLO205 cells assessed as reduction in cell viability incubated for 48 hrs by MTT assay; type: functional, cell-based; conditions: COLO 205, 48 h
KB 3-1 = experiment: Antiproliferative activity against human KB3-1 cells assessed as reduction in cell viability after 96 hrs by methylene blue staining based spectrophotometric method; type: functional; conditions: KB 3-1, 96 h
[2] = Antiproliferative activity against human KB-8-5-11 cells assessed as reduction in cell viability after 96 hrs by methylene blue staining based spectrophotometric method; type: functional
A549 [3] = experiment: Antiproliferative activity against human A549 cells assessed as reduction in cell viability incubated for 24 hrs by SRB assay; type: functional, cell-based; conditions: A549, 24 h
SK-OV-3 = experiment: Antiproliferative activity against human SKOV3 cells assessed as reduction in cell viability incubated for 24 hrs by SRB assay; type: functional, cell-based; conditions: SK-OV-3, 24 h
SK-MEL-2 = experiment: Antiproliferative activity against human SK-MEL-2 cells assessed as reduction in cell viability incubated for 24 hrs by SRB assay; type: functional, cell-based; conditions: SK-MEL-2, 24 h
HCT-15 = experiment: Antiproliferative activity against human HCT15 cells assessed as reduction in cell viability incubated for 24 hrs by SRB assay; type: functional, cell-based; conditions: HCT-15, 24 h
MCF7 [4] = experiment: Antiproliferative activity against human MCF7 cells assessed as reduction in cell viability incubated for 24 hrs by SRB assay; type: functional, cell-based; conditions: MCF7, 24 h
DLD-1 = experiment: Antiproliferative activity against human DLD1 cells assessed as reduction in cell viability; type: functional, cell-based
LoVo = experiment: Antiproliferative activity against human LoVo cells assessed as reduction in cell viability; type: functional, cell-based
MDA-MB-231 = experiment: Antiproliferative activity against human MDA-MB-231 cells assessed as reduction in cell viability; type: functional, cell-based
A2780 = experiment: Antiproliferative activity against human A2780 cells assessed as reduction in cell viability by MTT assay; type: functional, cell-based
A549 [5] = experiment: Antiproliferative activity against human A549 cells assessed as reduction in cell viability by MTT assay; type: functional, cell-based
Bel-7402 = experiment: Antiproliferative activity against human Bel7402 cells assessed as reduction in cell viability by MTT assay; type: functional, cell-based
MCF7 [6] = experiment: Antiproliferative activity against human MCF7 cells assessed as reduction in cell viability by MTT assay; type: functional, cell-based
MCF7 [7] = experiment: Antiproliferative activity against human MCF7 cells assessed as reduction in cell viability; type: functional, cell-based

Chain of ATP-dependent translocase ABCB1 (P08183 whole entry): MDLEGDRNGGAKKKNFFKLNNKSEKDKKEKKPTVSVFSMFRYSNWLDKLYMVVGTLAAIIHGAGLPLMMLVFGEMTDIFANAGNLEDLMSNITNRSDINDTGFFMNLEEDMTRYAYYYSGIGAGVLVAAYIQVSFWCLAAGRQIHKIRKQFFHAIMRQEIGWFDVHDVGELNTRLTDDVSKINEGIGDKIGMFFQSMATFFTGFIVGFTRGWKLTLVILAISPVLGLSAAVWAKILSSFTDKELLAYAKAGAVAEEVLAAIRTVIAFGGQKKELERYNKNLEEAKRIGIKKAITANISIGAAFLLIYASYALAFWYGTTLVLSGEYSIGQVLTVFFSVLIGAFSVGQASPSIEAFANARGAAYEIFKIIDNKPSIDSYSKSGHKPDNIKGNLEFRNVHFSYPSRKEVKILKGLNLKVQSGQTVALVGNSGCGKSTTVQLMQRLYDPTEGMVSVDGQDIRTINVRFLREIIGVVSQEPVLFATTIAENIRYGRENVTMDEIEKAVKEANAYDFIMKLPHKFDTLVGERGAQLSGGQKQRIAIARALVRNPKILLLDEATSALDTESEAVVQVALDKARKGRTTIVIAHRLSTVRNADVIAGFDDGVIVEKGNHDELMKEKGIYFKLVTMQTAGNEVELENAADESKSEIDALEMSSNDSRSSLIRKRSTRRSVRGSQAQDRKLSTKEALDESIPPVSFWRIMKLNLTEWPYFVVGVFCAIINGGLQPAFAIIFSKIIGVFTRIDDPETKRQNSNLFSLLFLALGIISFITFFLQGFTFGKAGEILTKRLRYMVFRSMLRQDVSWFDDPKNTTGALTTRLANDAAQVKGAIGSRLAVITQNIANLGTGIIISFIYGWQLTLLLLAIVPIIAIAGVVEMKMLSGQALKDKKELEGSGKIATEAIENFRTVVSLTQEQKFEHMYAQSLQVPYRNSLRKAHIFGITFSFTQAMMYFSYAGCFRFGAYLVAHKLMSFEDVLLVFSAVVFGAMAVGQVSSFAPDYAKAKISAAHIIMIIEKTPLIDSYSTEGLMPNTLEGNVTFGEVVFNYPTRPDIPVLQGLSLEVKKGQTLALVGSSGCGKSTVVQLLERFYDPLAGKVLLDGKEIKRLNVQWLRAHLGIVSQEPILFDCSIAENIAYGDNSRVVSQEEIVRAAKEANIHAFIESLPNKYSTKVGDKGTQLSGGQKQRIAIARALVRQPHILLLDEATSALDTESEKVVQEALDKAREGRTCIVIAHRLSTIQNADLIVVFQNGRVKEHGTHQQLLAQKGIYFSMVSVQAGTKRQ

SMILES: COc1cc2c(c(OC)c1OC)-c1ccc(N3CCOCC3)c(=O)cc1[C@@H](NC(C)=O)CC2
Activity [1]: 95.97%
IC50 (HCT-116): 5000 nM
IC50 (COLO 205): 1200 nM

SMILES: COc1cccc2c1C(=O)c1c(O)c3c(c(O)c1C2=O)C[C@@](O)(C(=O)CO)C[C@@H]3O[C@H]1C[C@H](N)[C@H](O)[C@H](C)O1 [DOXORUBICIN]
IC50 (A549 [3]): 14.7 nM
IC50 (SK-OV-3): 34.2 nM
IC50 (SK-MEL-2): 11.7 nM
IC50 (HCT-15): 16.4 nM
IC50 (DLD-1): 511 nM
IC50 (LoVo): 520 nM
IC50 (MDA-MB-231): 936 nM

SMILES: COc1cc2c(c(OC)c1OC)-c1ccc(OC)c(=O)cc1[C@@H](NC(C)=O)CC2 [COLCHICINE]
Activity [1]: 62.91%
IC50 (HCT-116): 50 nM
IC50 (A549 [3]): 21 nM
IC50 (SK-OV-3): 18 nM
IC50 (SK-MEL-2): 6 nM
IC50 (HCT-15): 9 nM
IC50 (MCF7 [4]): > 300 nM
IC50 (MDA-MB-231): 25.3 nM

SMILES: COc1cc2c(c(OC)c1OC)-c1ccc(N3CCC(c4ccccc4)CC3)c(=O)cc1[C@@H](NC(C)=O)CC2
Activity [1]: 101.03%
IC50 (HCT-116): 1000 nM
IC50 (COLO 205): 800 nM

SMILES: CNc1ccc2c(cc1=O)[C@@H](NC(=O)CCC(=O)OCCCCO[N+](=O)[O-])CCc1cc(OC)c(OC)c(OC)c1-2
IC50 (A2780): 10 nM
IC50 (A549 [5]): 12 nM
IC50 (Bel-7402): 13 nM
IC50 (MCF7 [6]): 8 nM

SMILES: CCN(CC)c1ccc2c(cc1=O)[C@@H](NC(C)=O)CCc1cc(OC)c(OC)c(OC)c1-2
Activity [1]: 95.38%
IC50 (HCT-116): 800 nM
IC50 (COLO 205): 430 nM

SMILES: COc1cc2c(c(OC)c1OC)-c1ccc(N3CCCCC3)c(=O)cc1[C@@H](NC(C)=O)CC2
Activity [1]: 119.01%
IC50 (HCT-116): 3000 nM
IC50 (COLO 205): 1800 nM

SMILES: COc1cc2c(c(OC)c1OC)-c1ccc(N3CCN(C(=O)OC(C)(C)C)CC3)c(=O)cc1[C@@H](NC(C)=O)CC2
Activity [1]: 90.94%
IC50 (HCT-116): 4000 nM
IC50 (COLO 205): 3000 nM

SMILES: COc1cc2c(c(OC)c1OC)-c1ccc(N3CCCC3)c(=O)cc1[C@@H](NC(C)=O)CC2
Activity [1]: 107.12%
IC50 (HCT-116): 300 nM
IC50 (COLO 205): 240 nM

Continued, in another order:

Activity [1]: 90.05%
IC50 (HCT-116): 700 nM
IC50 (COLO 205): 500 nM
SMILES: COc1cc2c(c(OC)c1OC)-c1ccc(Nc3ccc(F)c(Cl)c3)c(=O)cc1[C@@H](NC(C)=O)CC2

IC50 (KB 3-1): 260 nM
SMILES: COc1c(CO)c2c(c(OC)c1OC)-c1ccc(OC)c(=O)cc1[C@@H](NC(C)=O)CC2
IC50 [2]: > 1000 nM

IC50 (A549 [3]): 228 nM
IC50 (SK-OV-3): 676 nM
IC50 (SK-MEL-2): 130 nM
IC50 (HCT-15): 204 nM
IC50 (MCF7 [4]): 303 nM
SMILES: CCCCCCCCCCCCCC[C@H]1OC(C)(C)O[C@H]1[C@@H](NC(=O)OC(C)(C)C)C(=O)N[C@H]1CCc2cc(OC)c(OC)c(OC)c2-c2ccc(SC)c(=O)cc21

IC50 (A2780): 104 nM
IC50 (A549 [5]): 106 nM
IC50 (Bel-7402): 202 nM
IC50 (MCF7 [6]): 103 nM
SMILES: CNc1ccc2c(cc1=O)[C@@H](NC(=O)CCC(=O)OCCO[N+](=O)[O-])CCc1cc(OC)c(OC)c(OC)c1-2

Activity [1]: 102.66%
IC50 (HCT-116): 4000 nM
IC50 (COLO 205): 3000 nM
SMILES: COc1cc2c(c(OC)c1OC)-c1ccc(Nc3ccc4c(c3)OCO4)c(=O)cc1[C@@H](NC(C)=O)CC2

Activity [1]: 102.82%
IC50 (HCT-116): 3000 nM
IC50 (COLO 205): 1000 nM
SMILES: COc1cc2c(c(OC)c1OC)-c1ccc(N3CCN(C)CC3)c(=O)cc1[C@@H](NC(C)=O)CC2

IC50 (A2780): 99 nM
IC50 (A549 [5]): 88 nM
IC50 (Bel-7402): 85 nM
IC50 (MCF7 [6]): 135 nM
SMILES: CNc1ccc2c(cc1=O)[C@@H](NC(=O)CCC(=O)OCCCO[N+](=O)[O-])CCc1cc(OC)c(OC)c(OC)c1-2

IC50 (A549 [3]): 7.5 nM
IC50 (SK-OV-3): 17.2 nM
IC50 (SK-MEL-2): 17.9 nM
IC50 (HCT-15): 8.1 nM
IC50 (MCF7 [4]): 5.2 nM
SMILES: C=C(C)[C@@H]1CC=C(C(=O)N[C@H]2CCc3cc(OC)c(OC)c(OC)c3-c3ccc(SC)c(=O)cc32)CC1

IC50 (A2780): 96 nM
IC50 (A549 [5]): 86 nM
IC50 (Bel-7402): 85 nM
IC50 (MCF7 [6]): 100 nM
SMILES: CNc1ccc2c(cc1=O)[C@@H](NC(=O)CCC(=O)OCCCCCO[N+](=O)[O-])CCc1cc(OC)c(OC)c(OC)c1-2

IC50 (DLD-1): 317 nM
IC50 (LoVo): 438 nM
IC50 (MCF7 [7]): 874 nM
IC50 (MDA-MB-231): 1770 nM
SMILES: CCCCSc1ccc2c(cc1=O)[C@@H](NC(C)=O)CCc1cc(OC)c(OC)c(OC)c1-2
